Patent publication US20240043439A1, “COMPOUNDS AS C5AR INHIBITORS” (Kira Pharmaceuticals (Suzhou) Ltd., priority 2020, published 2024)
pIC50: −log10 of the molar value.

Tests used:
C5aR [1] = target: T1, C5aR (Homo sapiens (Human), UniProt P21730); test: Inhibition of C5a-C5aR binding determined by cell migration assay (U937/C5aR cells); type: cell-based; settings: U937/C5aR cell migration towards human C5a, 180 min
Procedure: Migration assay was performed by using polycarbonate membrane with 3.0 µm pore (Corning). U937/C5aR cells were collected and washed twice by PBS; cells were suspended in Hank's balanced salt solution (HBSS)+1% FBS buffer at the density of 6×10^6 cells/ml. Cells were premixed with compound and added to insert well, ligand human C5a and compound were added to bottom well in order, gently mix, incubate for 30 min at 37° C., […]. Put insert plate into bottom well, migrate for 180 min at 37° C., […]. Gently remove the insert well, add 50 μl CellTiter-Glo (Promega), gently shaking for 5 min at room temperature, transfer 150 μl mixture to black plate and read luminescence intensity by
microplate reader (BioTek).

[2] = target: human C5a receptor (C5aR) (Homo sapiens (Human), UniProt P21730); test: Inhibition of C5a-C5aR binding (biotinylated human C5a, U937/C5aR cells, FACS)
Method in brief: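 U937 cells stably expressing human C5aR, 3×10^6 cells/ml in PBS+0.1% BSA, were co-incubated with compound and biotinylated human C5a (30 nM, working solution) on ice for 120 min. Bound ligand was stained with FITC-streptavidin for 30 min on ice and read by flow cytometry.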

C5aR [3] = target: T1, C5aR; test: Calcium mobilization (U937/C5aR or HEK293/C5aR cells, FLIPR); type: cell-based; settings: agonist human C5a at EC80, FLIPR
Method in brief: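 U937 or HEK293 cells expressing human C5aR, plated overnight, then preincubated 60 min with compound. After Fluo-4 Direct dye loading (50 min at 37 °C, 10 min at room temperature), intracellular calcium rise on FLIPR was triggered by human C5a agonist at EC80.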

human C5a receptor (C5aR), sequence (P21730 whole entry): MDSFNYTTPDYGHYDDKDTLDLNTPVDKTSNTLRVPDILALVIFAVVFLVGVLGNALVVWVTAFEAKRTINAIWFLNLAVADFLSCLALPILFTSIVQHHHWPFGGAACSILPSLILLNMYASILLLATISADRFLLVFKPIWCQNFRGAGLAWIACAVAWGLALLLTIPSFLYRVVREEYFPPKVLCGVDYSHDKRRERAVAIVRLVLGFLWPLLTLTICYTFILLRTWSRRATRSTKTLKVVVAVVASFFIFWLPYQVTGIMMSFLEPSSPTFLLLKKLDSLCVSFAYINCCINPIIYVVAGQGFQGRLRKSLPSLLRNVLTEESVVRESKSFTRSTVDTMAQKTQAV
T1 sequence (P21730 whole entry): as above

Cc1cccc(F)c1C(=O)N1[C@@H]2COC[C@@H]2C[C@H](C(=O)Nc2ccc(N(C)C)cc2)[C@@H]1c1ccc(NC2CCCC2)cc1 [Compound 124, (2R,3S,4aR,7aS)-2-(4-(cyclopentylamino)phenyl)-N-(4-(dimethylamino)phenyl)-1-(2-fluoro-6-methylbenzoyl)octahydrofuro[3,4-b]pyridine-3-carboxamide]
pIC50 (C5aR [1]): 6.30 to 7.30 | pIC50 [2]: 6.30 to 7.30 | pIC50 (C5aR [3]): 5.00 to 5.70

Cc1ccc(NC(=O)C2C[C@@H]3COC[C@@H]3N(C(=O)c3c(C)cccc3F)C2c2ccc(CN3CCOCC3(C)C)cc2)cc1C(F)(F)F (relative stereo) [Compound 141, cis-2-(4-((3,3-dimethylmorpholino)methyl)phenyl)-1-(2-fluoro-6-methylbenzoyl)-N-(4-methyl-3-(trifluoromethyl)phenyl)octahydrofuro[3,4-b]pyridine-3-carboxamide]
pIC50 (C5aR [1]): 5.70 to 6.30 | pIC50 [2]: 6.30 to 7.30 | pIC50 (C5aR [3]): 5.00 to 5.70

Cc1ccc(NC(=O)C2C[C@H]3CCC[C@H]3N(C(=O)C3CCOCC3)[C@H]2c2ccc(NC3CCCC3)cc2)cc1C(F)(F)F (relative stereo) [Compound 111, cis-2-(4-(cyclopentylamino)phenyl)-N-(4-methyl-3-(trifluoromethyl)phenyl)-1-(tetrahydro-2H-pyran-4-carbonyl)octahydro-1H-cyclopenta[b]pyridine-3-carboxamide]
pIC50 (C5aR [1]): 6.30 to 7.30 | pIC50 [2]: 6.30 to 7.30 | pIC50 (C5aR [3]): 5.00 to 5.70

Cc1ccc(NC(=O)[C@H]2C[C@H]3COC[C@H]3N(C(=O)c3c(C)cccc3F)[C@H]2c2ccc(NC3CCCC3)cc2)cc1C(F)(F)F [Compound 119, (2R,3S,4aR,7aS)-2-(4-(cyclopentylamino)phenyl)-1-(2-fluoro-6-methylbenzoyl)-N-(4-methyl-3-(trifluoromethyl)phenyl)octahydrofuro[3,4-b]pyridine-3-carboxamide]
pIC50 (C5aR [1]): > 7.30 | pIC50 [2]: > 7.30 | pIC50 (C5aR [3]): 6.30 to 7.30

Cc1cccc(F)c1C(=O)N1C2CCC[C@@H]2C[C@H](C(=O)Nc2ccc3cccnc3c2)[C@@H]1c1ccc(NC2CCCC2)cc1 (mixture of isomers) [Compound 73, cis-2-(4-(cyclopentylamino)phenyl)-1-(2-fluoro-6-methylbenzoyl)-N-(quinolin-7-yl)octahydro-1H-cyclopenta[b]pyridine-3-carboxamide]
pIC50 (C5aR [1]): 6.30 to 7.30 | pIC50 [2]: 6.30 to 7.30 | pIC50 (C5aR [3]): 6.30 to 7.30

Cc1ccc(NC(=O)[C@H]2OCCN(C(=O)c3c(C)cccc3F)[C@H]2c2ccc(NC3CCCC3)cc2)cc1C(F)(F)F (relative stereo) [Compound 187, cis-3-(4-(cyclopentylamino)phenyl)-4-(2-fluoro-6-methylbenzoyl)-N-(4-methyl-3-(trifluoromethyl)phenyl)morpholine-2-carboxamide]
pIC50 (C5aR [1]): 6.30 to 7.30 | pIC50 [2]: 6.30 to 7.30 | pIC50 (C5aR [3]): 5.00 to 5.70

Cc1cccc(F)c1C(=O)N1[C@@H]2CCC[C@@H]2C[C@H](C(=O)Nc2ccc3c(ccn3C)c2)[C@@H]1c1ccc(NC2CCOCC2)cc1 [Compound 98, (2R,3S,4aR,7aR)-1-(2-fluoro-6-methylbenzoyl)-N-(1-methyl-1H-indol-5-yl)-2-(4-((tetrahydro-2H-pyran-4-yl)amino)phenyl)octahydro-1H-cyclopenta[b]pyridine-3-carboxamide]
pIC50 (C5aR [1]): > 7.30 | pIC50 [2]: > 7.30 | pIC50 (C5aR [3]): 5.70 to 6.30

Cc1ccc(NC(=O)[C@H]2CCC3CCc4ccccc4C(=O)N3[C@H]2c2ccc(NC3CCCC3)cc2)cc1C(F)(F)F (stereo partly drawn) [Compound 44, (3S,4R)-4-(4-(cyclopentylamino)phenyl)-N-(4-methyl-3-(trifluoromethyl)phenyl)-6-oxo-1,2,3,4,6,11,12,12a-octahydrobenzo[e]pyrido[1,2-a]azepine-3-carboxamide]
pIC50 (C5aR [1]): > 7.30 | pIC50 [2]: 6.30 to 7.30 | pIC50 (C5aR [3]): 5.70 to 6.30

Cc1cccc(F)c1C(=O)N1[C@@H]2CCC[C@@H]2C[C@H](C(=O)Nc2ccc3cnn(C4COC4)c3c2)[C@@H]1c1ccc(NC2CCCC2)cc1 (racemic) [Compound 59, cis-2-(4-(cyclopentylamino)phenyl)-1-(2-fluoro-6-methylbenzoyl)-N-(1-(oxetan-3-yl)-1H-indazol-6-yl)octahydro-1H-cyclopenta[b]pyridine-3-carboxamide]
pIC50 (C5aR [1]): 6.30 to 7.30 | pIC50 [2]: 6.30 to 7.30 | pIC50 (C5aR [3]): 5.70 to 6.30

Cc1ccc(NC(=O)C2C[C@@H]3CCC[C@@H]3N(C(=O)c3cocn3)C2c2ccc(NC3CCCC3)cc2)cc1C(F)(F)F (relative stereo) [Compound 110, cis-2-(4-(cyclopentylamino)phenyl)-N-(4-methyl-3-(trifluoromethyl)phenyl)-1-(oxazole-4-carbonyl)octahydro-1H-cyclopenta[b]pyridine-3-carboxamide]
pIC50 (C5aR [1]): 6.30 to 7.30 | pIC50 [2]: 6.30 to 7.30 | pIC50 (C5aR [3]): < 5.00

Cc1cccc(F)c1C(=O)N1C(c2ccc(NC3CCCC3)cc2)C(C(=O)Nc2cnc3cnn(C)c3c2)C[C@@H]2CCC[C@@H]21 (relative stereo) [Compound 78, cis-2-(4-(cyclopentylamino)phenyl)-1-(2-fluoro-6-methylbenzoyl)-N-(1-methyl-1H-pyrazolo[4,3-b]pyridin-6-yl)octahydro-1H-cyclopenta[b]pyridine-3-carboxamide]
pIC50 (C5aR [1]): 6.30 to 7.30 | pIC50 [2]: 6.30 to 7.30 | pIC50 (C5aR [3]): 5.70 to 6.30

Cc1cccc(F)c1C(=O)N1C(c2ccc(NC3CCCC3)cc2)C(C(=O)Nc2ccc3c(c2)CCN(C)C3)C[C@@H]2CCC[C@@H]21 (relative stereo) [Compound 77, cis-2-(4-(cyclopentylamino)phenyl)-1-(2-fluoro-6-methylbenzoyl)-N-(2-methyl-1,2,3,4-tetrahydroisoquinolin-6-yl)octahydro-1H-cyclopenta[b]pyridine-3-carboxamide]
pIC50 (C5aR [1]): < 5.30 | pIC50 [2]: 5.30 to 5.70 | pIC50 (C5aR [3]): 5.00 to 5.70

Cc1cccc(F)c1C(=O)N1C2CCC[C@@H]2C[C@H](C(=O)Nc2ccc3cccnc3c2)[C@@H]1c1ccc(NC2CCOCC2)cc1 (relative stereo) [Compound 90, cis-1-(2-fluoro-6-methylbenzoyl)-N-(quinolin-7-yl)-2-(4-((tetrahydro-2H-pyran-4-yl)amino)phenyl)octahydro-1H-cyclopenta[b]pyridine-3-carboxamide]
pIC50 (C5aR [1]): 6.30 to 7.30 | pIC50 [2]: 6.30 to 7.30 | pIC50 (C5aR [3]): 6.30 to 7.30

Cc1ccc(NC(=O)C2C[C@@H]3CCC[C@@H]3N(C(=O)c3c(C)cccc3F)C2c2ccc(NC3CCOCC3)cc2)cc1C(F)(F)F (relative stereo) [Compound 88, cis-1-(2-fluoro-6-methylbenzoyl)-N-(4-methyl-3-(trifluoromethyl)phenyl)-2-(4-((tetrahydro-2H-pyran-4-yl)amino)phenyl)octahydro-1H-cyclopenta[b]pyridine-3-carboxamide]
pIC50 (C5aR [1]): > 7.30 | pIC50 [2]: 6.30 to 7.30 | pIC50 (C5aR [3]): > 7.30

Cc1cccc(F)c1C(=O)N1C2CCC[C@@H]2C[C@H](C(=O)Nc2cccc(C(F)(F)F)c2)[C@@H]1c1ccc(NC2CCCC2)cc1 (relative stereo) [Compound 46, cis-2-(4-(cyclopentylamino)phenyl)-1-(2-fluoro-6-methylbenzoyl)-N-(3-(trifluoromethyl)phenyl)octahydro-1H-cyclopenta[b]pyridine-3-carboxamide]
pIC50 (C5aR [1]): 6.30 to 7.30 | pIC50 [2]: 6.30 to 7.30 | pIC50 (C5aR [3]): 6.30 to 7.30

Cc1cccc(F)c1C(=O)N1[C@@H]2CCC[C@@H]2C[C@H](C(=O)Nc2ccc3ncoc3c2)[C@@H]1c1ccc(NC2CCCC2)cc1 (racemic) [Compound 67, cis-N-(benzo[d]oxazol-6-yl)-2-(4-(cyclopentylamino)phenyl)-1-(2-fluoro-6-methylbenzoyl)octahydro-1H-cyclopenta[b]pyridine-3-carboxamide]
pIC50 (C5aR [1]): 6.30 to 7.30 | pIC50 [2]: > 7.30 | pIC50 (C5aR [3]): 6.30 to 7.30

Cc1ccc(NC(=O)C2C[C@H]3CCC[C@H]3N(C(=O)c3cscn3)C2c2ccc(NC3CCCC3)cc2)cc1C(F)(F)F (relative stereo) [Compound 114, cis-2-(4-(cyclopentylamino)phenyl)-N-(4-methyl-3-(trifluoromethyl)phenyl)-1-(thiazole-4-carbonyl)octahydro-1H-cyclopenta[b]pyridine-3-carboxamide]
pIC50 (C5aR [1]): 6.30 to 7.30 | pIC50 [2]: > 7.30 | pIC50 (C5aR [3]): < 5.00

Cc1cccc(F)c1C(=O)N1[C@@H]2CCC[C@@H]2C[C@H](C(=O)Nc2ccc(N(C)C)cc2)[C@@H]1c1ccc(NC2CCCC2)cc1 [Compound 51, (2R,3S,4aR,7aR)-2-(4-(cyclopentylamino)phenyl)-N-(4-(dimethylamino)phenyl)-1-(2-fluoro-6-methylbenzoyl)octahydro-1H-cyclopenta[b]pyridine-3-carboxamide]
pIC50 (C5aR [1]): > 7.30 | pIC50 [2]: > 7.30 | pIC50 (C5aR [3]): 5.70 to 6.30

Cc1cccc(F)c1C(=O)N1CCC[C@H](c2nc3ccc(C(C)(C)C)cc3[nH]2)[C@@H]1c1ccc(NC2CCCC2)cc1 [Compound 180, ((2R,3S)-3-(6-(tert-butyl)-1H-benzo[d]imidazol-2-yl)-2-(4-(cyclopentylamino)phenyl)piperidin-1-yl)(2-fluoro-6-methylphenyl)methanone]
pIC50 (C5aR [1]): > 7.30 | pIC50 [2]: 5.30 to 5.70 | pIC50 (C5aR [3]): 5.00 to 5.70
